Laboratory results taken from patent US20180201647A1, “Peptoid” (The University of Durham, priority 2015, published 2018).
Read-outs that look alike come from different tables or passages of the source. Where a SMILES comes first, the peptide text is derived from it. [ ]: non-standard residue; d: D form. Nspe = C[C@H](NCC(=O)O)c1ccccc1; NhArg = N=C(N)NCCCCNCC(=O)O; Nlys = NCCCCNCC(=O)O

Key:
Type in all cases: cell-based
[1] = system: Escherichia coli K12 W3110
Protocol: (§1) Species used in MIC assays included gram-negative Escherichia coli K12 W3110, Pseudomonas aeruginosa laboratory strain PAO2 and Serratia marcescens laboratory strain and gram-positive Staphylococcus aureus NCTC 6571 and Micrococcus luteus laboratory strain.
(§2) Bacterial cultures were prepared by streaking the bacterial strains on to agar plates with an inoculation loop and incubating overnight at 37° C. A single colony was then selected and placed in 5 mL of Iso-Sensitest broth using an inoculation loop and incubated at 37° C. with shaking overnight.
(§3) MIC values were attained according to the protocol described by J. M. Andrews et al. [J. M. Andrews, J. Antimicrob. Chemother., 2001, 48, 5-16] and were conducted in 96-well microtitre plates in triplicate. 10-50 μL of each overnight culture was inoculated into 1.2 mL of Iso-Sensitest broth and grown at 37° C. with shaking. […] The inoculum was diluted ten-fold with Iso-Sensitest broth before use (to ˜10^3 cfu/spot). Peptide solutions were initially dissolved in DMSO (5 mg mL^−1) and then diluted further with Iso-Sensitest broth to achieve a concentration range of 4 mgL^−1 to 512 mgL^−1 using 2-fold serial dilutions. Samples were vortexed between dilutions where necessary to aid dissolution. 50 μL of inoculum and 50 μL of peptide solution were added to each test well to achieve a final concentration range of 2 mgL^−1 to 256 mgL^−1. Separate dilutions of ampicillin and DMSO were made up in a similar manner to act as a positive antibacterial control and a +DMSO control, respectively. 50 μL of inoculum and 50 μL of Iso-Sensitest broth were used as a positive control and 100 μL of inoculum was used as a negative control. Positive and negatives controls were conducted multiple times in parallel per plate. […] Quantitative data were attained as A650nm values using a BioTek® Synergy™ H4 Hybrid Multi-Mode Microplate Reader.

[2] = system: Pseudomonas aeruginosa laboratory strain PAO2
Protocol: as §1, §2, §3

[3] = system: Serratia marcescens laboratory strain; settings: 16 h
Protocol: as §1, §2, §3

[4] = system: Staphylococcus aureus NCTC 6571
Protocol: as §1, §2, §3

[5] = system: E. coli (ATCC 29522) biofilm; assay: Single species biofilm treatment, crystal violet assay; settings: 100 μM peptoid, 24 hours, FIG. 17C
Protocol: C. albicans (NCTC 3179) was subcultured aerobically on Sabouraud agar plates and propagated in yeast peptone dextrose broth. E. coli (ATCC 29522) and S. aureus (NCTC 6571) were grown on blood agar plates and propagated in brain heart infusion (BHI) broth.
Overnight cultures of C. albicans were washed and resuspended in a modified RPMI-1640 (Sigma-Aldrich, St Louis, USA) medium to yield an inoculum of 1.0×10^6 cells/ml. Overnight cultures of S. aureus or E. coli were washed and resuspended in brain heart infusion broth (Oxoid, Basingstoke, UK) to yield an inoculum of 5.0×10^6 cells/ml. A total volume of 100 μl of each inoculum was added to microtitre plate wells (Thermo Fisher Scientific, Roskilde, Denmark). An initial biofilm was allowed to form for 4 hours. Wells were washed three times with 200 μl PBS to facilitate removal of planktonic cells and the biofilms were then treated with 100 μM of peptoids 1-4 in the appropriate broth. Plates were incubated for a further 24 hours to allow biofilm maturation. After removal of planktonic cells by washing, biofilms were quantified by the crystal violet assay or by PMA-qPCR.
Biofilm quantification by crystal violet assay Washed biofilms were fixed with 100 μl methanol for 10 minutes. Following removal of methanol, the wells were air dried and stained with crystal violet solution (Clin-Tech Ltd, Guildford, UK) for 20 minutes at room temperature. Excess stain was removed by washing, the plate was then air dried and bound crystal violet was re-solubilised in 16 μl 33% acetic acid prior to reading at 570 nm in a microtitre plate reader (Tecan GENios, Ziirich, Switzerland).

[6] = system: Leishmania mexicana (M379)
Protocol: Leishmania mexicana (M379) promastigote parasites were maintained at 26° C. in Schneider's Insect medium (Sigma-Aldrich) supplemented with heat-inactivated foetal bovine sera (FBS, 15%; Biosera Ltd). Cells were counted using a Neubauer Improved Haemocytometer. Promastigotes were transformed into axenic amastigotes by a pH and temperature shift as previously described. A culture of recently transformed (three days) promastigotes in the late log phase was transferred into Schneider's Insect medium supplemented with 20% heat-inactivated FBS (pH 5.5) at 5×10^5 parasites/mL. After 6 days, the parasites were in the metacyclic stage and used for transformation to amastigote-like forms by transfer in the same medium at 32° C. at 5×10^5 parasites/mL. After additional 5-7 days, the parasites should be in the amastigote stage and be ready for cytotoxicity studies and infections.
Cytotoxicity analyses were performed in 96-well plates (Costar, Fisher Scientific) using Alamar Blue (Invitrogen) for cell viability detection as previously described.
Promastigote and amastigote L. mexicana were pre-incubated with the compounds in triplicate (5 mM stock solutions in DMSO; Amphotericin B was used as a positive control; untreated parasites with DMSO as a negative control) in 50 μl of the corresponding media at 4×106 mL-1 for 1 hour. Afterwards, 40 μl were removed from each well before the addition of 90 μl of the corresponding media, followed by incubation for 24 hours at 4×105 mL-1. Then, 10 μl Alamar Blue solution (Invitrogen) was added to each well for an incubation of 4 hours prior to assessing cell viability using a fluorescent plate reader (Biotek; Ex 560 nm/Em 600 nm). To investigate the effects of serum on the efficacy of the peptoids, the assay described above was modified using serum-free medium for the pre-incubation time. For these assays, the parasites were washed three times in serum-free medium before adding them to the compound solutions. All of the experiments described above were carried out on a minimum of two separate occasions to ensure a robust data set was collected.

[7] = second figure of cell, 37° C., 16 h, Iso-Sensitest broth

SMILES: C[C@@H](c1ccccc1)N(CC(N)=O)C(=O)CN(C(=O)CN(CCCCN)C(=O)CN(C(=O)CN(C(=O)CN(CCCCN)C(=O)CN(C(=O)CN(C(=O)CN(CCCCNC(=N)N)C(=O)CN(C(=O)CN(C(=O)CNCCCCNC(=N)N)[C@@H](C)c1ccccc1)[C@@H](C)c1ccccc1)[C@@H](C)c1ccccc1)[C@@H](C)c1ccccc1)[C@@H](C)c1ccccc1)[C@@H](C)c1ccccc1)[C@@H](C)c1ccccc1 [Peptoid 2, (NhArg-Nspe-Nspe)2(NLys-Nspe-Nspe)2] (H-[NhArg][Nspe][Nspe][NhArg][Nspe][Nspe][Nlys][Nspe][Nspe][Nlys][Nspe][Nspe]-NH2; N-terminus assumed)
- MIC E. coli ([1]; K12, 16 h): 17 µM
- MIC E. coli [1, 7]: 32 mgL^−1
- MIC P. aeruginosa ([2]; laboratory strain PAO2, 16 h): 17 µM
- MIC P. aeruginosa [2, 7]: 32 mgL^−1
- MIC S. marcescens ([3]; laboratory strain): 134 µM
- MIC S. marcescens ([3]; second figure of cell, 37° C., Iso-Sensitest broth): 256 mgL^−1
- MIC S. aureus ([4]; NCTC 6571, 16 h): 17 µM
- MIC S. aureus [4, 7]: 32 mgL^−1
- activity against the E. coli biofilm [5]: strongest anti-bacterial activity
- IC50 ([6]; parasite stage not given, read-out: IC50 L. mexicana): 34 µM
- active against L. mexicana ([6]; statement in words): active
